The assay relates to CD8F1 mice, subcutaneous mammary adenocarcinoma, T/C%. Put plainly: NCI In Vivo Anticancer Drug Screen. Data for tumor model Mammary Adenocarcinoma CD8F1 (subcutaneous) in CD8F1. Conditions: higher = larger tumour. The gist of the method:
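Mice carrying transplanted tumors received test compound, and survival or tumor size was recorded. Each value is the treated-group measurement divided by the corresponding measurement in vehicle-dosed controls.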

[1] abbreviates: endpoint: median tumor weight (est.), dose: 25.0 mg/kg/injection, schedule: Q07DX005 (ip), vehicle: Klucel (hydroxypropylcellulose) (HPC).
Setting [2] is: endpoint: median tumor weight (est.), dose: 50.0 mg/kg/injection, schedule: Q07DX005 (ip), vehicle: Klucel (hydroxypropylcellulose) (HPC).
Setting [3] is: endpoint: median tumor weight (est.), dose: 200.0 mg/kg/injection, schedule: Q07DX005 (ip), vehicle: Klucel (hydroxypropylcellulose) (HPC).
[4] abbreviates: endpoint: median tumor weight change, dose: 500.0 mg/kg/injection, schedule: Q01DX001 (ip), vehicle: saline with Tween-80.
Setting [5] is: endpoint: median tumor weight (est.), dose: 12.5 mg/kg/injection, schedule: Q07DX005 (ip), vehicle: Klucel (hydroxypropylcellulose) (HPC).

Several values for one entry are separate records, joined by “and”; a condition that tells them apart may be missing. Identical values can stand only once. Inconclusive results are not listed.

Take `CC(C)(Oc1ccc(-c2cccc3ccccc23)cc1)C(=O)O`: the T/C was 48 % of control under setting [1]; 52 % of control under setting [2]; 57 % of control (endpoint: median tumor weight (est.), dose: 100.0 mg/kg/injection, schedule: Q07DX005 (ip), vehicle: Klucel (hydroxypropylcellulose) (HPC)); 79 % of control under setting [3]; 39 % of control (endpoint: median tumor weight (est.), dose: 400.0 mg/kg/injection, schedule: Q07DX005 (ip), vehicle: Klucel (hydroxypropylcellulose) (HPC)).
As for `COc1ccc2c(NCCCCCCCCNc3c4ccccc4nc4cc(OC)ccc34)c3ccccc3nc2c1`, the T/C is 42 % of control (endpoint: median tumor weight (est.), dose: 0.47 mg/kg/injection, schedule: Q07DX005 (ip), vehicle: other); 63 % of control (endpoint: median tumor weight (est.), dose: 0.94 mg/kg/injection, schedule: Q07DX005 (ip), vehicle: other); 152 % of control (endpoint: median tumor weight (est.), dose: 1.87 mg/kg/injection, schedule: Q07DX005 (ip), vehicle: other); 50 % of control (endpoint: median tumor weight (est.), dose: 1.88 mg/kg/injection, schedule: Q07DX005 (ip), vehicle: other); 53 % of control (endpoint: median tumor weight (est.), dose: 3.75 mg/kg/injection, schedule: Q07DX005 (ip), vehicle: other); 36 % of control (endpoint: median tumor weight (est.), dose: 7.5 mg/kg/injection, schedule: Q07DX005 (ip), vehicle: other).
Take `CCc1ccc(C2=C(O)C(=O)C(c3ccccc3)=C(O)C2=O)cc1`: the T/C (endpoint: median tumor weight change, dose: 31.25 mg/kg/injection, schedule: Q01DX001 (ip), vehicle: Klucel (hydroxypropylcellulose) (HPC)) was 84 % of control; the T/C (endpoint: median tumor weight change, dose: 62.5 mg/kg/injection, schedule: Q01DX001 (ip), vehicle: Klucel (hydroxypropylcellulose) (HPC)) was 106 % of control; the T/C (endpoint: median tumor weight change, dose: 125.0 mg/kg/injection, schedule: Q01DX001 (ip), vehicle: Klucel (hydroxypropylcellulose) (HPC)) is 59 % of control.
Take `NCC1CCC(C(=O)O)CC1` (configuration not stated): the T/C runs as follows: (endpoint: median tumor weight change, dose: 125.0 mg/kg/injection, schedule: Q01DX001 (ip), vehicle: saline with Tween-80) 63 % of control; (endpoint: median tumor weight change, dose: 250.0 mg/kg/injection, schedule: Q01DX001 (ip), vehicle: saline with Tween-80) 86 % of control; under setting [4], 36 % of control; (endpoint: median tumor weight change, dose: 1000.0 mg/kg/injection, schedule: Q01DX001 (ip), vehicle: saline with Tween-80) 97 % of control; (endpoint: median tumor weight change, dose: 2000.0 mg/kg/injection, schedule: Q01DX001 (ip), vehicle: saline with Tween-80) 62 % of control.
For `C=C1C(=O)C23[C@H](O)C1CC[C@H]2[C@]12COC3(O)[C@@H](O)[C@@H]1C(C)(C)CC[C@@H]2O`, the T/C is 104 % of control (endpoint: median tumor weight (est.), dose: 8.75 mg/kg/injection, schedule: Q07DX005 (ip), vehicle: Klucel (hydroxypropylcellulose) (HPC)); 65 % of control (endpoint: median tumor weight (est.), dose: 17.5 mg/kg/injection, schedule: Q07DX005 (ip), vehicle: Klucel (hydroxypropylcellulose) (HPC)); 54 % of control (endpoint: median tumor weight change, dose: 15.62 mg/kg/injection, schedule: Q01DX001 (ip), vehicle: saline with Tween-80); 61 % of control (endpoint: median tumor weight change, dose: 31.25 mg/kg/injection, schedule: Q01DX001 (ip), vehicle: saline with Tween-80).
On to `O=C1NC(=O)NC(C(=O)O)N1`, for which the T/C is 79 % of control (endpoint: median tumor weight change, dose: 12.0 mg/kg/injection, schedule: Q01DX001 (ip), vehicle: DMSO); 104 % of control (endpoint: median tumor weight change, dose: 25.0 mg/kg/injection, schedule: Q01DX001 (ip), vehicle: DMSO); 79 % of control (endpoint: median tumor weight change, dose: 50.0 mg/kg/injection, schedule: Q01DX001 (ip), vehicle: DMSO); 83 % of control (endpoint: median tumor weight change, dose: 75.0 mg/kg/injection, schedule: Q01DX001 (ip), vehicle: DMSO); 73 % of control (endpoint: median tumor weight change, dose: 100.0 mg/kg/injection, schedule: Q01DX001 (ip), vehicle: DMSO); 96 % of control (endpoint: median tumor weight change, dose: 150.0 mg/kg/injection, schedule: Q01DX001 (ip), vehicle: DMSO). Besides, the T/C (endpoint: median tumor weight change, dose: 200.0 mg/kg/injection, schedule: Q01DX001 (ip), vehicle: DMSO) was 83 % of control; the T/C (endpoint: median tumor weight change, dose: 300.0 mg/kg/injection, schedule: Q01DX001 (ip), vehicle: DMSO) was 86 % of control; the T/C (endpoint: median tumor weight change, dose: 400.0 mg/kg/injection, schedule: Q01DX001 (ip), vehicle: DMSO) was 56 % of control; the T/C (endpoint: median tumor weight change, dose: 600.0 mg/kg/injection, schedule: Q01DX001 (ip), vehicle: DMSO) was 80 % of control.
In the case of `CS(=O)(=O)OCCCCOS(C)(=O)=O`, the T/C under setting [5] was 91 % of control and 95 % of control; the T/C under setting [1] was 59 % of control and 70 % of control; the T/C under setting [3] was 8 % of control.
As for `CNC(=O)OCc1c(COC(=O)NC)c(-c2ccccc2)n(C)c1-c1ccccc1`, the T/C (endpoint: median tumor weight change, dose: 31.25 mg/kg/injection, schedule: Q01DX001 (ip), vehicle: distilled water + Tween-80) is 54 % of control.
As for `S=P(N1CC1)(N1CC1)N1CC1`, the T/C is 45 % of control (endpoint: mean tumor weight, dose: 1.0 mg/kg/injection, schedule: Q01DX009 (ip), vehicle: saline); 7 % of control (endpoint: mean tumor weight, dose: 2.0 mg/kg/injection, schedule: Q01DX009 (ip), vehicle: saline); 354 % of control (endpoint: mean tumor weight, dose: 4.0 mg/kg/injection, schedule: Q07DX005 (ip), vehicle: saline); 20 % of control (endpoint: mean tumor weight, dose: 4.0 mg/kg/injection, schedule: Q07DX006 (ip), vehicle: saline); 1 % of control (endpoint: mean tumor weight, dose: 4.0 mg/kg/injection, schedule: Q07DX007 (ip), vehicle: saline); 597 % of control (endpoint: mean tumor weight, dose: 8.0 mg/kg/injection, schedule: Q07DX005 (ip), vehicle: saline). Further, the T/C is 3 % of control (endpoint: mean tumor weight, dose: 8.0 mg/kg/injection, schedule: Q07DX006 (ip), vehicle: saline); 6 % of control (endpoint: mean tumor weight, dose: 8.0 mg/kg/injection, schedule: Q07DX007 (ip), vehicle: saline); 61 % of control (endpoint: mean tumor weight, dose: 16.0 mg/kg/injection, schedule: Q07DX005 (ip), vehicle: saline); 96 % of control (endpoint: median tumor weight (est.), dose: 0.5 mg/kg/injection, schedule: Q07DX005 (ip), vehicle: saline); 157 % of control (endpoint: median tumor weight (est.), dose: 1.0 mg/kg/injection, schedule: Q07DX005 (ip), vehicle: saline); 159 % of control (endpoint: median tumor weight (est.), dose: 2.0 mg/kg/injection, schedule: Q07DX005 (ip), vehicle: saline). In addition, the T/C reads like this: (endpoint: median tumor weight (est.), dose: 4.0 mg/kg/injection, schedule: Q07DX005 (ip), vehicle: saline) 42 % of control; (endpoint: median tumor weight (est.), dose: 8.0 mg/kg/injection, schedule: Q07DX005 (ip), vehicle: saline) 15 % of control.
Turning to `C=C(C)C1C2CC3(C)C4(CO4)C4OC4C3(O)C1C(=O)O2` (configuration not stated), the T/C (endpoint: median tumor weight change, dose: 1.25 mg/kg/injection, schedule: Q01DX001 (ip), vehicle: Klucel (hydroxypropylcellulose) (HPC)) is 85 % of control.
For `NC(CCl)=NCC12CC3CC(CC(C3)C1)C2`, the T/C (endpoint: median tumor weight (est.), dose: 3.12 mg/kg/injection, schedule: Q07DX005 (ip), vehicle: Klucel (hydroxypropylcellulose) (HPC)) was 114 % of control; the T/C under setting [5] was 104 % of control and 119 % of control; the T/C under setting [1] was 90 % of control; the T/C under setting [2] was 39 % of control and 51 % of control.
As to `CNc1nc2c(N)ncnc2n1C1OC(CO)C(O)C1O` (configuration not stated), the T/C (endpoint: median tumor weight (est.), dose: 25.0 mg/kg/injection, schedule: Q07DX005 (ip), vehicle: suspension in saline) was 89 % of control and 91 % of control; the T/C (endpoint: median tumor weight (est.), dose: 50.0 mg/kg/injection, schedule: Q07DX005 (ip), vehicle: suspension in saline) was 76 % of control and 96 % of control; the T/C (endpoint: median tumor weight (est.), dose: 100.0 mg/kg/injection, schedule: Q07DX005 (ip), vehicle: suspension in saline) is 29 % of control.
In the case of `CC[C@@]1(O)C(=O)OCc2c1cc1n(c2=O)Cc2cc3ccccc3nc2-1`, the T/C (endpoint: median tumor weight change, dose: 1.5 mg/kg/injection, schedule: Q01DX001 (ip), vehicle: saline with Tween-80) was 64 % of control; the T/C (endpoint: median tumor weight change, dose: 6.0 mg/kg/injection, schedule: Q01DX001 (ip), vehicle: saline with Tween-80) was 56 % of control and 73 % of control; the T/C (endpoint: median tumor weight change, dose: 12.0 mg/kg/injection, schedule: Q01DX001 (ip), vehicle: saline with Tween-80) is 62 % of control; the T/C (endpoint: median tumor weight change, dose: 24.0 mg/kg/injection, schedule: Q01DX001 (ip), vehicle: saline with Tween-80) is 5 % of control and 10 % of control.
Take `Nc1ccc(S(=O)(=O)Nc2cnc3c(Cl)cccc3n2)cc1`: the T/C is, setting by setting: (endpoint: median tumor weight change, dose: 125.0 mg/kg/injection, schedule: Q01DX001 (ip), vehicle: DMSO) 96 % of control; (endpoint: median tumor weight change, dose: 500.0 mg/kg/injection, schedule: Q01DX001 (ip), vehicle: DMSO) 102 % of control and 121 % of control; (endpoint: median tumor weight change, dose: 2000.0 mg/kg/injection, schedule: Q01DX001 (ip), vehicle: DMSO) 102 % of control.
Regarding `COc1ccc(C(=O)c2no[n+]([O-])c2C(=O)c2ccc(OC)cc2)cc1`, the T/C under setting [4] was 84 % of control.

For the origin of these results see PubChem BioAssay AID220 (DTP/NCI, 2004).
